This note sets out measurements from ChEMBL document CHEMBL4627254, “Design and synthesis of (E)-1,2-diphenylethene-based EZH2 inhibitors” (Bioorg Med Chem Lett, 2020).

Some results are limits rather than exact numbers.

Assay [1] in a line: Antiproliferative activity against over expressing […] human WSU-DLCL2 cells. Format: functional. The settings on record: WSUDLCL2.
In assay [2] the test system is SUD4. As to the kind of experiment: Antiproliferative activity against over expressing […] human SUDHL4 cells. Format: functional, cell-based. The settings on record: SU-DHL-4.
The next assay relates to MV4-11. As to the kind of experiment: Antiproliferative activity against human MV4-11 cells. Format: functional, cell-based.
Assay [3] addresses T1, Histone-lysine N-methyltransferase EZH2 (Homo sapiens, UniProt Q15910). Put plainly: Inhibition of wild type EZH2 (unknown origin) by AlphaLISA assay. A general note: Bead proximity is the source of the signal in Alpha formats.
Target sequence in this assay (Q15910 whole entry): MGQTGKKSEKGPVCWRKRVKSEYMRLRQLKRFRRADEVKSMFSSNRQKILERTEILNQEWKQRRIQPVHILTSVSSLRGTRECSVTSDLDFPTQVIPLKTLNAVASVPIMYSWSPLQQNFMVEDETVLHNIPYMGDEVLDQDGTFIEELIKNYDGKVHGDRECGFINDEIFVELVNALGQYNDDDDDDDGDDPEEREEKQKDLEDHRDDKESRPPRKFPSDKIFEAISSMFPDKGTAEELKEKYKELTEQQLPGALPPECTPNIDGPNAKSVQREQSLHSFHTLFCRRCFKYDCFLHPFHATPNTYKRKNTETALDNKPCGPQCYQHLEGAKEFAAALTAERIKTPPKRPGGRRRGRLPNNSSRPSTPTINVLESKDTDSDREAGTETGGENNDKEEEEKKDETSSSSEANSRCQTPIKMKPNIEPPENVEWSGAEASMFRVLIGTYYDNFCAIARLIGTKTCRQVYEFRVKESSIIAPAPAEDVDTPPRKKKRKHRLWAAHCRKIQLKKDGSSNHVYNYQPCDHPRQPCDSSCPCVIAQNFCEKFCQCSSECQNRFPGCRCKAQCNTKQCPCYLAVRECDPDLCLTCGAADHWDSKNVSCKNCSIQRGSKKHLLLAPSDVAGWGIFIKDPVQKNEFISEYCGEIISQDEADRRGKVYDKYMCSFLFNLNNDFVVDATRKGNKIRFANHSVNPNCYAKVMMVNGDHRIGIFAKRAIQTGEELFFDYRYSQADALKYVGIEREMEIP
Assay [4] relates to SUD4. As to the kind of experiment: Induction of apoptosis in human SUDHL4 cells assessed as necrotic cells at 1 uM after 6 days by AnnexinV/propidium iodide staining based flow cytometry analysis (reference value: 0.737 %). Format: functional.
Assay [5] relates to SUD4. As to the kind of experiment: Induction of apoptosis in human SUDHL4 cells assessed as viable cells at 1 uM after 6 days by AnnexinV/propidium iodide staining based flow cytometry analysis (reference value: 92.7 %). Format: functional. The settings on record: SU-DHL-4, 144 h, read-out: Activity.
Assay [6] has as its system SUD4. Put plainly: Induction of apoptosis in human SUDHL4 cells assessed as early apoptotic cells at 1 uM after 6 days by AnnexinV/propidium iodide staining based flow cytometry analysis (reference value: 0.061 %). Format: functional. On the technique in general: Flow cytometry measures light scatter and fluorescence of single cells or particles in a stream.
The test system of assay [7] is SUD4. Put plainly: Induction of apoptosis in human SUDHL4 cells assessed as late apoptotic cells at 1 uM after 6 days by AnnexinV/propidium iodide staining based flow cytometry analysis (reference value: 2.01 %). Format: functional.
The subject of assay [8] is SUD4. As to the kind of experiment: Induction of apoptosis in human SUDHL4 cells assessed as necrotic cells at 2 uM after 6 days by AnnexinV/propidium iodide staining based flow cytometry analysis (reference value: 0.737 %). Format: functional.
Assay [9] has as its system SUD4. Put plainly: Induction of apoptosis in human SUDHL4 cells assessed as viable cells at 2 uM after 6 days by AnnexinV/propidium iodide staining based flow cytometry analysis (reference value: 92.7 %). Format: functional. The settings on record: SU-DHL-4, 144 h, read-out: Activity.
Assay [10] relates to SUD4. Put plainly: Induction of apoptosis in human SUDHL4 cells assessed as early apoptotic cells at 2 uM after 6 days by AnnexinV/propidium iodide staining based flow cytometry analysis (reference value: 0.061 %). Format: functional.
The test system of assay [11] is SUD4. As to the kind of experiment: Induction of apoptosis in human SUDHL4 cells assessed as late apoptotic cells at 2 uM after 6 days by AnnexinV/propidium iodide staining based flow cytometry analysis (reference value: 2.01 %). Format: functional.
For assay [12], the system named is SUD4. As to the kind of experiment: Induction of apoptosis in human SUDHL4 cells assessed as necrotic cells at 4 uM after 6 days by AnnexinV/propidium iodide staining based flow cytometry analysis (reference value: 0.737 %). Format: functional.
In assay [13] the test system is SUD4. As to the kind of experiment: Induction of apoptosis in human SUDHL4 cells assessed as viable cells at 4 uM after 6 days by AnnexinV/propidium iodide staining based flow cytometry analysis (reference value: 92.7 %). Format: functional. The settings on record: SU-DHL-4, 144 h, read-out: Activity.
For assay [14], the system named is SUD4. Put plainly: Induction of apoptosis in human SUDHL4 cells assessed as early apoptotic cells at 4 uM after 6 days by AnnexinV/propidium iodide staining based flow cytometry analysis (reference value: 0.061 %). Format: functional.
Assay [15] relates to SUD4. Put plainly: Induction of apoptosis in human SUDHL4 cells assessed as late apoptotic cells at 4 uM after 6 days by AnnexinV/propidium iodide staining based flow cytometry analysis (reference value: 2.01 %). Format: functional.
For assay [16], the target named is T1, Histone-lysine N-methyltransferase EZH2. As to the kind of experiment: Inhibition of EZH2 in human SUDHL4 cells assessed as reduction in H3K27 methylation measured after 6 days by western blot analysis. Format: cell-based. The settings on record: SUD4. In general terms: In western blotting, separated proteins are transferred to a membrane and probed.
Target sequence in this assay (Q15910 whole entry, looked up): as the sequence (Q15910 whole entry) above

With `CCN(c1cc(/C=C/c2ccc(CN3CCN(C)CC3)cc2)cc(C(=O)NCc2c(C)c3c([nH]c2=O)CCCC3)c1C)C1CCOCC1`, the IC50 – broadly, the concentration at which inhibition is half-maximal – came out at 3.11 µM in [1], 4.31 µM in the assay on SUD4 [2] and 22.6 µM in the assay on MV4-11.
`CCN(c1cc(/C=C/c2cccc(CN3CCOCC3)c2)cc(C(=O)NCc2c3c(c(C)[nH]c2=O)CCCC3)c1C)C1CCOCC1`: the figures for the half-maximal inhibitory concentration (IC50) (in [1]; in the assay on SUD4 [2]; with MV4-11) were greater than 30 µM, greater than 30 µM and 4.44 µM, respectively.
In the case of `CCN(c1cc(/C=C/c2ccc(CN3C[C@@H]4C[C@H]3CO4)c(F)c2)cc(C(=O)NCc2c(C)c3c([nH]c2=O)CCCC3)c1C)C1CCOCC1`, the IC50 was determined as 4.58 µM in assay [1], 10.5 µM in the assay on SUD4 [2] and 24.3 µM with MV4-11.
For `CCN(c1cc(/C=C/c2ccc(N3CCOCC3)nc2)cc(C(=O)NCc2c(C)c3c([nH]c2=O)CCCC3)c1C)C1CCOCC1` the same measures were 25.8 µM, greater than 30 µM and greater than 30 µM.
With `CCN(c1cc(/C=C/c2ccc(CN3C[C@@H](C)O[C@@H](C)C3)cc2)cc(C(=O)NCc2c(C)c3c([nH]c2=O)CCCC3)c1C)C1CCOCC1`, the IC50 is greater than 30 µM in assay [1], greater than 30 µM in the assay on SUD4 [2] and 8.04 µM with MV4-11.
With `CCN(c1cc(/C=C/c2ccc(CN3CCC4(CC3)OCCO4)cc2)cc(C(=O)NCc2c3c(c(C)[nH]c2=O)CCCC3)c1C)C1CCOCC1`, the IC50 in [3] was 0.055 µM; in [1] it was 27.7 µM; with SUD4 [2], greater than 30 µM; in the assay on MV4-11, 3.21 µM.
Take `CCN(c1cc(/C=C/c2ccc(CN3C[C@@H]4C[C@H]3CO4)c(F)c2)cc(C(=O)NCc2c3c(c(C)[nH]c2=O)CCCC3)c1C)C1CCOCC1`: the results for the IC50 (in [1]; with SUD4 [2]; with MV4-11) were 9.27 µM, 15.4 µM and 21.1 µM, respectively.
For `CCN(c1cc(-c2ccc(CN3CCN(C)CC3)cc2)cc(C(=O)NCc2c3c(c(C)[nH]c2=O)CCCC3)c1C)C1CCOCC1` the same measures were 1.64 µM, 1.78 µM and greater than 30 µM.
For `CCN(c1cc(-c2ccc(CN3CCOCC3)cc2)cc(C(=O)NCc2c(C)cc(C)[nH]c2=O)c1C)C1CCOCC1` [TAZEMETOSTAT] the same measures were 17.8 µM, 14.3 µM and 22.4 µM.
Turning to `CCN(c1cc(/C=C/c2ccc(/C=C/C(=O)OC)cc2)cc(C(=O)NCc2c3c(c(C)[nH]c2=O)CCCC3)c1C)C1CCOCC1`, the half-maximal inhibitory concentration (IC50) in assay [1] is 21.2 µM.
As to `CCN(c1cc(/C=C/c2ccc(CN3C[C@@H](C)O[C@@H](C)C3)cc2)cc(C(=O)NCc2c3c(c(C)[nH]c2=O)CCCC3)c1C)C1CCOCC1`, the IC50 (in assay [1]; in the assay with SUD4 [2]; in the assay with MV4-11) was greater than 30 µM throughout.
On to `CCN(c1cc(/C=C/c2cccc(CN(C)C)c2)cc(C(=O)NCc2c3c(c(C)[nH]c2=O)CCCC3)c1C)C1CCOCC1`, for which the results for the half-maximal inhibitory concentration (IC50) (in [1]; in the assay on SUD4 [2]; in the assay on MV4-11) were 1.61 µM, 2.34 µM and 2.8 µM, respectively. Further, the Activity came to 1.34% in the assay on SUD4 [4]; 0.112% in the assay on SUD4 [6]; 36.2% in the assay with SUD4 [7]; 4.14% in the assay with SUD4 [8]; 1.28% in the assay with SUD4 [10]; 69.1% in the assay on SUD4 [11]. Further, the Activity in the assay on SUD4 [12] is recorded as 0.824%; with SUD4 [14], 0.369%; in the assay with SUD4 [15], 92.9%. In addition, in the assay with SUD4 [5], the viability at 1 µM is 62.3%. Moreover, in the assay on SUD4 [9], the viability at 2 µM came to 25.5%. Moreover, in the assay on SUD4 [13], the viability at 4 µM turned out to be 5.91%. For the same compound, the inhibition result in [16] is “Dose-dependent effect”.
Regarding `CCN(c1cc(/C=C/c2ccc(CN3C[C@H]4C[C@@H]3CO4)c(F)c2)cc(C(=O)NCc2c(C)c3c([nH]c2=O)CCCC3)c1C)C1CCOCC1`, the results for the IC50 (in assay [1]; in the assay with SUD4 [2]; with MV4-11) were 6.18 µM, greater than 30 µM and greater than 30 µM, respectively.
Consider `CCN(c1cc(/C=C/c2ccc3c(c2)NC(=O)CO3)cc(C(=O)NCc2c(C)c3c([nH]c2=O)CCCC3)c1C)C1CCOCC1`, for which the half-maximal inhibitory concentration (IC50) in assay [1] was greater than 30 µM; with SUD4 [2], 25.7 µM; in the assay with MV4-11, 5.69 µM.
With `CCN(c1cc(/C=C/c2ccc(S(=O)(=O)N3CCOCC3)cc2)cc(C(=O)NCc2c3c(c(C)[nH]c2=O)CCCC3)c1C)C1CCOCC1`, the concentration for half-maximal inhibition (IC50) in [1] is greater than 30 µM.
Turning to `CCN(c1cc(/C=C/c2cccc(CN3CCOCC3)c2)cc(C(=O)NCc2c(C)c3c([nH]c2=O)CCCC3)c1C)C1CCOCC1`, the results for the IC50 (in assay [1]; in the assay with SUD4 [2]; with MV4-11) were greater than 30 µM, greater than 30 µM and 9.23 µM, respectively.
Turning to `CCN(c1cc(/C=C/c2cccc(CN(C)C)c2)cc(C(=O)NCc2c(C)c3c([nH]c2=O)CCCC3)c1C)C1CCOCC1`, the IC50 in assay [1] is 20.9 µM; in the assay on SUD4 [2], 15.7 µM; with MV4-11, 3.98 µM.
For `CCN(c1cc(/C=C/c2ccc(CN3CCN(C)CC3)cc2)cc(C(=O)NCc2c3c(c(C)[nH]c2=O)CCCC3)c1C)C1CCOCC1` the same measures were 2.58 µM, 5.96 µM and greater than 30 µM.
The corresponding values for `CCN(c1cc(/C=C/c2ccc(N3CCOCC3)nc2)cc(C(=O)NCc2c3c(c(C)[nH]c2=O)CCCC3)c1C)C1CCOCC1` are 12.6 µM, 21.7 µM and greater than 30 µM.
The corresponding values for `CCN(c1cc(/C=C/c2ccc(CN3C[C@@H](C)O[C@@H](C)C3)c(F)c2)cc(C(=O)NCc2c3c(c(C)[nH]c2=O)CCCC3)c1C)C1CCOCC1` are 27.7 µM, greater than 30 µM and 4.36 µM.
For `CCN(c1cc(/C=C/c2ccc(CN3C[C@@H](C)O[C@@H](C)C3)c(F)c2)cc(C(=O)NCc2c(C)c3c([nH]c2=O)CCCC3)c1C)C1CCOCC1`, the IC50 in [1] was greater than 30 µM; in the assay on SUD4 [2], 20.4 µM; with MV4-11, 12 µM.
For `CCN(c1cc(/C=C/c2ccc(CN3CCOCC3)cc2)cc(C(=O)NCc2c3c(c(C)[nH]c2=O)CCCC3)c1C)C1CCOCC1` the same measures were greater than 30 µM, greater than 30 µM and 6.41 µM.
For `CCN(c1cc(/C=C/c2ccc3c(c2)NC(=O)CO3)cc(C(=O)NCc2c3c(c(C)[nH]c2=O)CCCC3)c1C)C1CCOCC1` the same measures were greater than 30 µM, 30 µM and 4.56 µM.
The corresponding values for `CCN(c1cc(/C=C/c2ccc(CN3CCOCC3)cc2)cc(C(=O)NCc2c(C)c3c([nH]c2=O)CCCC3)c1C)C1CCOCC1` are greater than 30 µM, 25.7 µM and greater than 30 µM.
`CCN(c1cc(/C=C/c2ccc(CN3CCC4(CC3)OCCO4)cc2)cc(C(=O)NCc2c(C)c3c([nH]c2=O)CCCC3)c1C)C1CCOCC1`: the IC50 in assay [3] came out at 0.189 µM; in assay [1] it was 17.5 µM; in the assay on SUD4 [2], 21.6 µM; in the assay with MV4-11 it was 3.87 µM.
Regarding `CCN(c1cc(/C=C/c2ccc(CN3C[C@H]4C[C@@H]3CO4)c(F)c2)cc(C(=O)NCc2c3c(c(C)[nH]c2=O)CCCC3)c1C)C1CCOCC1`, the half-maximal inhibitory concentration (IC50) was 5.85 µM in [1], greater than 30 µM with SUD4 [2] and greater than 30 µM in the assay with MV4-11.
Turning to `CCN(c1cc(/C=C/c2ccc(S(=O)(=O)N3CCOCC3)cc2)cc(C(=O)NCc2c(C)c3c([nH]c2=O)CCCC3)c1C)C1CCOCC1`, the IC50 in assay [1] was greater than 30 µM.
